Experimental data: PMC6395926, “Mass Balance and Drug Interaction Potential of Intravenous Eravacycline Administered to Healthy Subjects” (Antimicrobial Agents and Chemotherapy, 2019)

Test: Mass balance study: plasma PK of eravacycline, TP-498 and TP-6208 (LC-MS)
Assay type: in vivo, human
Conditions: plasma, single i.v. dose of [14C]eravacycline
From the text: (ii) Study design. This was a single-center, open-label study of a single i.v. dose of [^14C]eravacycline to assess the mass balance recovery and PK of eravacycline. The primary objectives were to determine mass balance recovery, determine routes and rates of excretion, provide metabolite profiling and structural identification, and assess the PK of radioactivity in plasma and whole blood. Subjects were screened for inclusion in the study, including a detailed medical history, physical examination, and laboratory evaluations, in the 28 days before dosing. Eligible subjects were admitted to the clinical study unit at approximately 21:00 on the evening prior to study drug administration (day −1) and remained on site until 240 h postdose for collection of urine, feces, and blood samples. After an overnight fast, each subject received 60 mg [^14C]eravacycline containing not more than 3.8 MBq (105 μCi) ^14C as a single i.v. infusion over 60 min.
(vi) Study assessments. PK parameters were determined for total radioactivity in plasma and whole blood. Eravacycline, TP-498, and TP-6208 concentrations in plasma were quantified using a validated assay with internal standards. The following PK parameters were determined: Cmax, Tmax, time from dosing before the first quantifiable concentration in a concentration versus time profile (Tlag), AUC0–t, AUC0–24, AUC0–∞, the percentage of AUC0–∞ extrapolated beyond the time of the last measurable concentration (AUC%extrap), the slope of the apparent terminal phase (lambda-z), the apparent terminal half-life (t1/2), the mean residence time estimated between time zero and infinity (MRT0-∞), the apparent volume of plasma cleared of analyte per unit time (CL), and the volume of distribution of analyte at steady state (Vss).
Plasma concentrations of eravacycline, TP-498, and TP-6208 were measured by liquid chromatography with tandem mass spectrometry (LC-MS). The LLOQ was 5 ng/ml for eravacycline, TP-498, and TP-6208. The calibration ranges for eravacycline, TP-498, and TP-6208 in human urine were 50 to 10,000 ng/ml, 50 to 1,000 ng/ml, and 20 to 1,000 ng/ml, respectively. The calibration ranges for eravacycline, TP-498, and TP-6208 in human plasma were 5 to 500 ng/ml.
(viii) Study analysis. Descriptive statistics (mean, median, standard deviation [SD], percent coefficient of variation [%CV], minimum, maximum, number, geometric mean, and geometric %CV) were calculated for all concentration data. Pharmacokinetic parameters were calculated using Phoenix WinNonlin v6.3 (Certera USA, Inc.).

[1] = human, iv, 60 mg, geometric mean (%CV), n = 2

clearance [1]: 228 ± 13.8 mL/min
half-life [1]: 18.2 ± 5 h
MRT inf (human, iv, 60 mg, geometric mean (%CV), n = 2, read-out: MRT0-∞): 15.9 ± 8.9 h
CL renal (human, iv, 60 mg, geometric mean (%CV), n = 5): 41.9 ± 16.6 mL/min
Tmax (male, human, iv, 60 mg): 0.55 to 1 h
AUC(0-inf) (male, human, iv, 60 mg, geometric mean (%CV), n = 2): 4380 ng·h/mL
Cmax (male, human, iv, 60 mg, geometric mean (%CV), n = 5, read-out: Cmax): 1100 ng/mL
Vd (male, human, iv, 60 mg, geometric mean (%CV), n = 2, read-out: Vss (volume of distribution)): 217 ± 4.9 L
time postdose plasma concentrations were quantifiable: approximately 73 h
SMILES: CN(C)[C@@H]1C(O)=C(C(N)=O)C(=O)[C@@]2(O)C(O)=C3C(=O)c4c(O)c(NC(=O)CN5CCCC5)cc(F)c4C[C@H]3C[C@@H]12 [eravacycline]
